Data as given in ChEMBL document CHEMBL1201862, “PubChem BioAssay data set” (2004).
Calls of active or inactive are those of the source.

Columns and labels:
[1] = target: Cell division cycle 7-related protein kinase (Homo sapiens, UniProt O00311); assay type: functional;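 further: value obtained from a kinome-wide kinase panel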
[2] = target: Cyclin-dependent kinase 19 (Homo sapiens, UniProt Q9BWU1); assay: Navigating the Kinome. Panel member name: CDC2L6; assay type: functional
[3] = viability loss in Mcl1-dependent HMC-1-8 cells, dose response, selectivity assay for A1 inhibitor project, cell-based, luminescence, dry powder (AID 504415); assay type: functional; conditions: Homo sapiens
[4] = target: T1, NACHT, LRR and PYD domains-containing protein 1 (Homo sapiens, UniProt Q9C000); assay: NALP1 inhibitors in yeast, dose response, luminescent (AID 488860); assay type: functional
T1 sequence (Q9C000 whole entry): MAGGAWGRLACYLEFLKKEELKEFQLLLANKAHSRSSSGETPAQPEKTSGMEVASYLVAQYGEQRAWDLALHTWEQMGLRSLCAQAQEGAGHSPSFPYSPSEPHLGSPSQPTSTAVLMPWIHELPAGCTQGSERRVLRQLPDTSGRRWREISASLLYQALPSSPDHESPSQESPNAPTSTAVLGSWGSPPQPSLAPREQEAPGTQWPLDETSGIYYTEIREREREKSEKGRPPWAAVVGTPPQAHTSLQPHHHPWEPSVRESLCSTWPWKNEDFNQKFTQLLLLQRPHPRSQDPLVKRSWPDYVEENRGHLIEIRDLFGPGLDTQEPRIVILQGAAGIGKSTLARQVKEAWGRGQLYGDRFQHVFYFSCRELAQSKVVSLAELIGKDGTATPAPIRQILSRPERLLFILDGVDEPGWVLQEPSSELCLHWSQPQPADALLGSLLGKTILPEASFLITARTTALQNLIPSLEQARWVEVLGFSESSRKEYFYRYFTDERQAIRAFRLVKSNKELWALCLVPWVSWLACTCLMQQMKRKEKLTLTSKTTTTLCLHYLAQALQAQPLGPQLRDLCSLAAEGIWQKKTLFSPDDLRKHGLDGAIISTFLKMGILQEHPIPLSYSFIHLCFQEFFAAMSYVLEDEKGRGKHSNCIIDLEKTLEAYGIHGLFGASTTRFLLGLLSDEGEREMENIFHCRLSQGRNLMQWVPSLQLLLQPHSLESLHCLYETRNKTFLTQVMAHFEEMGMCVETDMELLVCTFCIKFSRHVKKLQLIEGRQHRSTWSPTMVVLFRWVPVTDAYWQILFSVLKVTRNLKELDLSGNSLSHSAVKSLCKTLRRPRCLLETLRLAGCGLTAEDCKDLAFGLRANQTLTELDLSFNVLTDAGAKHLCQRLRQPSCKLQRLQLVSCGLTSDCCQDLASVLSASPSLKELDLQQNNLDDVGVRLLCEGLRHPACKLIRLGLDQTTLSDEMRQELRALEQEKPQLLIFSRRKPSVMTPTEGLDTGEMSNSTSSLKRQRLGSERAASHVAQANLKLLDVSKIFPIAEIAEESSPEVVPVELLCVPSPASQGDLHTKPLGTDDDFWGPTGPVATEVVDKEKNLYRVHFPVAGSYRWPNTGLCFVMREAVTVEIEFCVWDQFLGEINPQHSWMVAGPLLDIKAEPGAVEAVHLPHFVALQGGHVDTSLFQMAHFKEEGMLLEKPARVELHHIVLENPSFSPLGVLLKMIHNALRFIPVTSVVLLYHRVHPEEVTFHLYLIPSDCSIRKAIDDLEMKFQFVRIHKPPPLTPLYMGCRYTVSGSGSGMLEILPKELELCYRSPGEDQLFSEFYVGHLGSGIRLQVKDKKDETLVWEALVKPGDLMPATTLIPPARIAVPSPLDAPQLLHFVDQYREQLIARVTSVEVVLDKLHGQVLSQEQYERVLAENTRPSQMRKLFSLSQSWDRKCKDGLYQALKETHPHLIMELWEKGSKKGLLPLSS

[5] = target: T2, Replicative DNA helicase DnaB (Mycobacterium tuberculosis, UniProt P9WMR3); assay: DnaB intein splicing inhibitors, dose response, biochemical, cell-free fluorescence (AID 449749); assay type: functional
T2 sequence (P9WMR3 whole entry): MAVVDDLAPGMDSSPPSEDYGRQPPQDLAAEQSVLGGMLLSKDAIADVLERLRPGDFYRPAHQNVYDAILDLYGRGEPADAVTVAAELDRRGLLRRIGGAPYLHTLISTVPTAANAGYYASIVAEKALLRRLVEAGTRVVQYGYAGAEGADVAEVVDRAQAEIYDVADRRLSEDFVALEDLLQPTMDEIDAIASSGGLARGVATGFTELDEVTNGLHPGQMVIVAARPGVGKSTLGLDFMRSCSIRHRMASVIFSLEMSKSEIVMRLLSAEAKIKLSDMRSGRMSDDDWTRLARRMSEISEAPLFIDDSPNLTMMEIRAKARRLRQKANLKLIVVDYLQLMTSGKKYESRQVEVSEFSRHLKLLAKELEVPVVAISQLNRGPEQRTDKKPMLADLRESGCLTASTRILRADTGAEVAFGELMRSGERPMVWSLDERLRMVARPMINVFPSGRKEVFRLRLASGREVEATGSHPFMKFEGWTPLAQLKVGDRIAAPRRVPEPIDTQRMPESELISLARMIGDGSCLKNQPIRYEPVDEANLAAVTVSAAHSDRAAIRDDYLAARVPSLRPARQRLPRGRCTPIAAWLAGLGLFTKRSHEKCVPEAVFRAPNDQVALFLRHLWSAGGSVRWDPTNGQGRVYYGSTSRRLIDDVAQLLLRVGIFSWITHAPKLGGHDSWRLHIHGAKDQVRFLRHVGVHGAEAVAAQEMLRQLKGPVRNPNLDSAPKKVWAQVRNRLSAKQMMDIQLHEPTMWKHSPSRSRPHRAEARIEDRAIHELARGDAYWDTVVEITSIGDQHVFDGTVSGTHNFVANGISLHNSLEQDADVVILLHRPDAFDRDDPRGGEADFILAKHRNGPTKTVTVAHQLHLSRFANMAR

[6] = target: T3, Protein RecA (Mycobacterium tuberculosis, UniProt P9WHJ3); assay: Fluorescence Cell-Free Homogeneous Dose Retest to Identify Inhibitors of RecA-Intein Splicing Activity. [Related pubchem assays (depositor defined):AID2097, AID2223, AID489010, AID492950]; assay type: functional
T3 sequence (P9WHJ3 whole entry): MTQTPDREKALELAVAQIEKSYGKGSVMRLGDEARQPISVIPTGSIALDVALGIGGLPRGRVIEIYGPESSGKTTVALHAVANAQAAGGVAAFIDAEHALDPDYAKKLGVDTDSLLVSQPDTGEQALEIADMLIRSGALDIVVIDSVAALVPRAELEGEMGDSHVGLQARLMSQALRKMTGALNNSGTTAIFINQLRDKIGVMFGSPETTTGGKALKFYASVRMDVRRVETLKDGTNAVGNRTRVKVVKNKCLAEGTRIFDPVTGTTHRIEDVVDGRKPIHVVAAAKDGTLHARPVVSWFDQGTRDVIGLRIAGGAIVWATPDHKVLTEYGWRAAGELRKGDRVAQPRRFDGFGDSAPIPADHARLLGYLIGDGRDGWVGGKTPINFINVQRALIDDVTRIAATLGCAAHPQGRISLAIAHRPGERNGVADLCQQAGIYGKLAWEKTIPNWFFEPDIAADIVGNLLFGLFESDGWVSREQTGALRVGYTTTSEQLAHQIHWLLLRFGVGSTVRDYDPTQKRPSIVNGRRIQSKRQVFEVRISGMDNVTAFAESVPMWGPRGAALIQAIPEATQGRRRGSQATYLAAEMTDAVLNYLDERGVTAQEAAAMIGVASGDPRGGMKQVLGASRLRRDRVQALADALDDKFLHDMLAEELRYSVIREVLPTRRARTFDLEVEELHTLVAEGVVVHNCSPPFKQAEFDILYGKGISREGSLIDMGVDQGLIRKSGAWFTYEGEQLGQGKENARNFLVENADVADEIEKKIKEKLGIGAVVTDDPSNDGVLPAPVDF

[7] = tested on: Saccharomyces cerevisiae; assay: NALP1 inhibitor project selectivity study, Caspase-1/ASC signal blockade IC50 in S. cerevisiae (AID 488863); assay type: functional, organism-based
[8] = target: Protein disulfide-isomerase (Homo sapiens, UniProt P07237); assay: PDI inhibitors, insulin aggregation turbidity, dose response, biochemical, absorbance, cherry-picked samples (AID 602350); assay type: functional
Protein disulfide-isomerase, sequence (P07237 whole entry): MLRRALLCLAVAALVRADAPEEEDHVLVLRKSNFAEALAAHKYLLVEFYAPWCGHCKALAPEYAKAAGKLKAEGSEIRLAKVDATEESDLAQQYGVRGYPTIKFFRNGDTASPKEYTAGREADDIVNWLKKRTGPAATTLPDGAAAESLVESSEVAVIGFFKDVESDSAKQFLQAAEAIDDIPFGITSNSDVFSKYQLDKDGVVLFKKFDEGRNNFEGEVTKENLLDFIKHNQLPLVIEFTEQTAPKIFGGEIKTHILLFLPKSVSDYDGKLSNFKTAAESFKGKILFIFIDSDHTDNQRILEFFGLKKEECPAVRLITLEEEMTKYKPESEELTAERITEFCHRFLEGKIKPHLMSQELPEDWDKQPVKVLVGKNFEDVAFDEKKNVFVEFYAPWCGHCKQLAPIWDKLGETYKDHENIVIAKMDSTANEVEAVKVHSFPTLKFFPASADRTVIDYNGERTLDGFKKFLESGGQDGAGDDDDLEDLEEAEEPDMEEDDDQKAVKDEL

[9] = target: T4, Sphingosine 1-phosphate receptor 4 (Homo sapiens, UniProt O95977); assay: Late-stage fluorescence-based dose-response cell-based counterscreen assay to identify agonists of the Sphingosine 1-Phosphate Receptor 3 (S1P3): Sphingosine 1-Phosphate Receptor 4 (S1P4) agonist assay.; assay type: functional
T4 sequence (O95977 whole entry): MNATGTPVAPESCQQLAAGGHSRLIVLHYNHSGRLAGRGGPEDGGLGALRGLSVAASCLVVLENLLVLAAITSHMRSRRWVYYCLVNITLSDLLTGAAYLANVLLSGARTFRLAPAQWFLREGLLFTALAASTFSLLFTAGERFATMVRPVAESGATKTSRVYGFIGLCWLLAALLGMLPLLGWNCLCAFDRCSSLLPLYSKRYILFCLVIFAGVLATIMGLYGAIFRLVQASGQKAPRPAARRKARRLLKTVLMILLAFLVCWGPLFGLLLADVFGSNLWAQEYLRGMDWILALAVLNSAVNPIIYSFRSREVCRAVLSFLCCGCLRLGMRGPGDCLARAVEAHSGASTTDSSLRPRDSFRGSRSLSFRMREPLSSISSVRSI

[10] = target: Sphingosine 1-phosphate receptor 2 (Homo sapiens, UniProt O95136); assay: Late-stage fluorescence-based dose-response cell-based counterscreen assay to identify agonists of the Sphingosine 1-Phosphate Receptor 3 (S1P3): Sphingosine 1-Phosphate Receptor 2 (S1P2) agonist assay.; assay type: functional
Sphingosine 1-phosphate receptor 2, sequence (O95136 whole entry): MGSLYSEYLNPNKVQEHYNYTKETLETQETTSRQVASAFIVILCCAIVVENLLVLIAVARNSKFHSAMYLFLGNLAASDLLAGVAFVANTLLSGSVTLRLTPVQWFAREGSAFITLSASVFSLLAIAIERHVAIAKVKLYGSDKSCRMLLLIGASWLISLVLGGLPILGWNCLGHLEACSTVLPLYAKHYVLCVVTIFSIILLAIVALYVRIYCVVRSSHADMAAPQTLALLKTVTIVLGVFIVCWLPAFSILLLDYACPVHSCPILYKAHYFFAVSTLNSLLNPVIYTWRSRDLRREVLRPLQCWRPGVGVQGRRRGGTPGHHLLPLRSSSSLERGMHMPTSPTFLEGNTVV

[11] = target: DNA dC->dU-editing enzyme APOBEC-3A (Homo sapiens, UniProt P31941); assay: SAR analysis of small molecule inhibitors of APOBEC3A DNA Deaminase via a fluorescence-based single-stranded DNA deaminase assay.; assay type: functional; conditions: read-out: IC50_Mean
DNA dC->dU-editing enzyme APOBEC-3A, sequence (P31941 whole entry): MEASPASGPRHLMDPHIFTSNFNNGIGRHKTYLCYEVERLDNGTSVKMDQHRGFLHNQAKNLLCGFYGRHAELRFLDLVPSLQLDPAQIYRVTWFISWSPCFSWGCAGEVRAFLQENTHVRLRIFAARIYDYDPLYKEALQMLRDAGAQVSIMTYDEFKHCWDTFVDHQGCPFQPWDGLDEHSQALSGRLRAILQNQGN

[12] = target: DNA dC->dU-editing enzyme APOBEC-3G (Homo sapiens, UniProt Q9HC16); assay: APOBEC3G deaminase inhibitors, SAR follow-up, biochemical, fluorescence, single-stranded DNA substrate (AID 602136); assay type: functional; conditions: read-out: IC50_Mean
DNA dC->dU-editing enzyme APOBEC-3G, sequence (Q9HC16 whole entry): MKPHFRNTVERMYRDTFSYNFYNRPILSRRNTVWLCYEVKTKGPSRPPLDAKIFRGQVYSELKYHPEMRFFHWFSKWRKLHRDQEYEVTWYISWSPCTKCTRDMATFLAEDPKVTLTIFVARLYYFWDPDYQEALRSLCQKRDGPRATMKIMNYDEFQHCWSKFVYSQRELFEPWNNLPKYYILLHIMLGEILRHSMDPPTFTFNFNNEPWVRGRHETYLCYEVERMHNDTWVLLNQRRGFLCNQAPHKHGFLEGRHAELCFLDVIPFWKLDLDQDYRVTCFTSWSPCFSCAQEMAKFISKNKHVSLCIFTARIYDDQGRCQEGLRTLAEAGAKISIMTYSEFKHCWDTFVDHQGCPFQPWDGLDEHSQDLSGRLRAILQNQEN

Cell division cycle 7-related protein kinase, sequence (O00311 whole entry): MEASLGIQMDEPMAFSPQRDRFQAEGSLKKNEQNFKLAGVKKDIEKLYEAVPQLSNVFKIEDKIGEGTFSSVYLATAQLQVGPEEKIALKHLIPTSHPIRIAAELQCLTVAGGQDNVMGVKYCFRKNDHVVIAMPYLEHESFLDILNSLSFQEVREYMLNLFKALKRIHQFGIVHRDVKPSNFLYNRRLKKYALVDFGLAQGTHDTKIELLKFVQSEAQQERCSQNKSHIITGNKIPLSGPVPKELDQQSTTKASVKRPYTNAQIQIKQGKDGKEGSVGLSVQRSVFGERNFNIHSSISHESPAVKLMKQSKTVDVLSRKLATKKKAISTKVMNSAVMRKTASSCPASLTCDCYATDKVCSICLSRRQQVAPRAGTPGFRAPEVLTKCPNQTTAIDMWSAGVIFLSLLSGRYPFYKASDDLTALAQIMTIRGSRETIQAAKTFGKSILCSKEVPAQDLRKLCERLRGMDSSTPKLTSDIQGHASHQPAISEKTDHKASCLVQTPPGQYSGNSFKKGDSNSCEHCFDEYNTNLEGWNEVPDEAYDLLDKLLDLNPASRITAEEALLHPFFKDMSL
Cyclin-dependent kinase 19, sequence (Q9BWU1 whole entry): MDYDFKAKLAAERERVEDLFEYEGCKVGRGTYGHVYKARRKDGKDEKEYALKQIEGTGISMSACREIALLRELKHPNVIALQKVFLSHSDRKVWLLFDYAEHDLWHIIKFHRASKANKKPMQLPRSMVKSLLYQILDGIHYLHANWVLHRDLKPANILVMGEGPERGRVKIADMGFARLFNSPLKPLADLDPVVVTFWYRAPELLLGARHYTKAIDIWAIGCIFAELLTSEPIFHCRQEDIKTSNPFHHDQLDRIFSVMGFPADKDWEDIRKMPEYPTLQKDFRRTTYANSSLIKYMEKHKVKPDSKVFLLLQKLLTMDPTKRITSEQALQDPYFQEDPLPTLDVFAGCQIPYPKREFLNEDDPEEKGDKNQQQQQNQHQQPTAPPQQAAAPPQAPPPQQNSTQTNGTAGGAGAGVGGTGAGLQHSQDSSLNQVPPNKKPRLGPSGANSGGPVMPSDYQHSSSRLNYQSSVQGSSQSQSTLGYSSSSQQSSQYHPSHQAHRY

SMILES: O=c1nc(-c2ccccc2)cc(-c2ccncc2)[nH]1
- Ki [1]: 0.158 µM (active)
- Ki [2]: > 100 µM (inactive)

SMILES: Cn1c(=O)c([N+](=O)[O-])c(-n2cnc3ccccc32)c2ccccc21
- AC50 [3]: 69.6 µM (active)
- IC50 [4]: > 100 µM (inactive)
- AC50 [5]: 8.12 µM (active)
- EC50 [6]: 7.26 µM (active)
- IC50 [7]: 72.3 µM (active)

SMILES: Cc1ccc2nc(N3CCN(Cc4nnnn4C4CCCC4)CC3)c(C#N)cc2c1
- AC50 [8]: 4.05 µM (active)

SMILES: O=C(c1noc2ccccc12)N(C1CCCCC1)C1CCCCC1
- EC50 [9]: > 50 µM (inactive)
- EC50 [10]: > 50 µM (inactive)

SMILES: Nc1nc2sc3c(c2c2nnc(SCc4ccc(Cl)cc4)n12)CCCC3
- IC50 [11]: > 99 µM (inactive)
- IC50 [12]: > 99 µM (inactive)
